From patent publication US10377725B2, “Phenyl amino pyrimidine compound or polymorph of salt thereof” (Suzhou Zelgen Biopharmaceuticals Co., Ltd., priority 2015, dated 2019)

Legend:
[1] = accelerated stability test of polymorphs; type: physicochemical; details: accelerated test 40±2° C., 75%±5% RH, 6 months; for purity after accelerated test: compared to freshly prepared (0 Month)
[2] = hygroscopicity test of polymorphs (Chinese Pharmacopoeia 2010 edition, Appendix XIX J); type: physicochemical; details: 25° C.±1° C., saturated ammonium sulfate solution, 24 h
Experimental: The test was performed according to the guiding principles of drug's hygroscopic test (Chinese Pharmacopoeia 2010 edition, Appendix XIX J).
1. Take 4 dry glass weighing bottles with lids (60 mm of the outer diameter and 30 mm of the height). On the day before the test, the bottles were placed in a glass dryer (“constant temperature and humidity dryer”) where a saturated ammonium sulfate solution was placed, and the glass dryer was placed in the bottom of a constant temperature and humidity box at 25° C.±1° C.
2. After each empty weighing bottle together with its lid were placed in the “constant temperature and humidity dryer” for 24 hours, stabilize precisely the weight of each unit by a set (one weighing bottle+its lid), recorded as m1.
3. A polymorph II sample was taken and tiled in a glass weighing bottle which had been weighed (the thickness of a sample was about 1 mm), and the bottle was covered, the weight of each weighing bottle (one weighing bottle+its lid+the sample) was precisely weighed, recorded as m2.
3. Each sample was placed in the “constant temperature and humidity dryer” for 24 h, and then the weight of each weighing bottle (one weighing bottle+its lid+the sample) was precisely weighed, recorded as m3.
4. The percentage of hygroscopicity weight increase of each sample was calculated (the formula was shown as follows), and it is defined as no or almost no hygroscopicity when the percentage of hygroscopicity weight increase is less than 0.2%. It is defined as slightly hygroscopicity when the percentage of hygroscopicity weight increase is equal or greater than 0.2%, but less than 2.0%. the percentage of weight increase=[(m3−m2)/(m2−m1)]×100%

stability of crystal form [1]	purity after accelerated test [1]	percentage of weight increase [2]	Compound	degradated impurity [1]	hygroscopicity [2]
very stable	above 99%		Cl.Cl.[2H]C1([2H])CN(c2ccc(Nc3nccc(-c4ccc(C(=O)NCC#N)cc4)n3)cc2)CC([2H])([2H])O1 [polymorph I, N-(cyanomethyl)-4-(2-((4-(2′,2′,6′,6′-d4-morpholino)phenyl)amino)pyrimidin-4-yl)benzamide dihydrochloride]	no obvious degradated impurity was observed	slightly hygroscopicity (slightly hygroscopicity when the percentage of hygroscopicity weight increase is equal or greater than 0.2%, but less than 2.0%)
very stable	above 99%	0.24%	Cl.Cl.O.[2H]C1([2H])CN(c2ccc(Nc3nccc(-c4ccc(C(=O)NCC#N)cc4)n3)cc2)CC([2H])([2H])O1 [polymorph II, N-(cyanomethyl)-4-(2-((4-(2′,2′,6′,6′-d4-morpholino)phenyl)amino)pyrimidin-4-yl)benzamide dihydrochloride monohydrate]	no obvious degradated impurity was observed	slightly hygroscopicity (slightly hygroscopicity when the percentage of hygroscopicity weight increase is equal or greater than 0.2%, but less than 2.0%)
very stable	above 99%		Cl.[2H]C1([2H])CN(c2ccc(Nc3nccc(-c4ccc(C(=O)NCC#N)cc4)n3)cc2)CC([2H])([2H])O1 [polymorph III, N-(cyanomethyl)-4-(2-((4-(2′,2′,6′,6′-d4-morpholino)phenyl)amino)pyrimidin-4-yl)benzamide monohydrochloride]	no obvious degradated impurity was observed	
very stable	above 99%		[2H]C1([2H])COCC([2H])([2H])N1c1ccc(Nc2nccc(-c3ccc(C(=O)NCC#N)cc3)n2)cc1 [polymorph V, N-(cyanomethyl)-4-(2-((4-(2′,2′,6′,6′-d4-morpholino)phenyl)amino)pyrimidin-4-yl)benzamide]	no obvious degradated impurity was observed	
